US20250073208A1, “IL-6 AND/OR IL-1BETA INHIBITOR” (AGC INC., priority 2022, published 2025)

Key:
[1] = test system: rats with monocrotaline-induced pulmonary hypertension; test: Pulmonary histopathological analysis in the monocrotaline-induced pulmonary hypertension rat model; type: in vivo, rat (male Sprague Dawley); details: 2 mg/kg/day, 3 weeks
Experimental: According to the method described in Abe K, Circ Res, 94: 385-393, 2004, a monocrotaline (MCT)-induced pulmonary hypertension rat model was prepared. Monocrotaline (manufactured by Sigma Ltd. Aldrich) was subcutaneously injected once at a dose of 60 mg/kg to 5- to 6-week-old (body weight 150-200 g) male Sprague Dawley rats (SD rat). The compound of the present invention (KAG-308) was orally administered using a gavage needle at a dose of 1 mg/kg (2 mg/kg/day) twice daily from the day of subcutaneous injection of monocrotaline until the day before measurement (“MCT+KAG-308” in FIG. 1). The same amount of solvent (water for injection) was administered for the same period to the pulmonary hypertension rat model not treated with KAG-308 (“MCT” in FIG. 1). The normal control group, which was not administered monocrotaline and KAG-308, was of the same age (“Normal” in FIG. 1). Three weeks after monocrotaline injection, right ventricular systolic pressure, systemic arterial pressure, heart rate number, and right-to-left ventricular weight ratio (right ventricular hypertrophy) were measured. Under isoflurane inhalation anesthesia, right ventricular systolic pressure was measured by the right heart catheterization method. Using a conductance catheter, systemic arterial pressure and heart rate were measured from the carotid artery. After the measurement, the rats were euthanized with a lethal dose of intravenous pentobarbital, and the hearts were excised. The weight of the left ventricle (LV) including the ventricular septum (Sep) relative to the right ventricle (RV) was measured, and the ratio was used as an index of right ventricular hypertrophy. […]
Pulmonary arteries with an outer diameter of 50 to 100 μm were analyzed, and the mean medial wall thickness was measured in a blind manner (mean medial wall thickness=(outer diameter−inner diameter)/outer diameter).
Muscularization of small pulmonary arteries with an outer diameter of 50 μm or less was analyzed by immunostaining with anti-α-SMA (smooth muscular actin) antibody. According to the percentage of smooth muscle in the total circumference of the small pulmonary artery, they were defined as Non muscular (<25%), Partially muscular (25-75%), and Totally muscular (>75%), and at least 70 small pulmonary arteries of each specimen were evaluated in a blinded method.
Macrophages were measured by immunostaining using anti-CD68 antibody. The device used was a laser scanning microscope FV1200 IX83 (OLYMPUS), and observation was performed at a magnification of 400×, and CD68-positive cells were counted in 15 randomly selected fields mainly of small blood vessels.

[2] = test system: rats with monocrotaline-induced pulmonary hypertension; test: Monocrotaline (MCT)-induced pulmonary hypertension rat model: haemodynamics and right ventricular hypertrophy; type: in vivo; details: 3 weeks
Experimental: According to the method described in Abe K, Circ Res, 94: 385-393, 2004, a monocrotaline (MCT)-induced pulmonary hypertension rat model was prepared. Monocrotaline (manufactured by Sigma Ltd. Aldrich) was subcutaneously injected once at a dose of 60 mg/kg to 5- to 6-week-old (body weight 150-200 g) male Sprague Dawley rats (SD rat). The compound of the present invention (KAG-308) was orally administered using a gavage needle at a dose of 1 mg/kg (2 mg/kg/day) twice daily from the day of subcutaneous injection of monocrotaline until the day before measurement (“MCT+KAG-308” in FIG. 1). The same amount of solvent (water for injection) was administered for the same period to the pulmonary hypertension rat model not treated with KAG-308 (“MCT” in FIG. 1). The normal control group, which was not administered monocrotaline and KAG-308, was of the same age (“Normal” in FIG. 1). Three weeks after monocrotaline injection, right ventricular systolic pressure, systemic arterial pressure, heart rate number, and right-to-left ventricular weight ratio (right ventricular hypertrophy) were measured. Under isoflurane inhalation anesthesia, right ventricular systolic pressure was measured by the right heart catheterization method. Using a conductance catheter, systemic arterial pressure and heart rate were measured from the carotid artery. After the measurement, the rats were euthanized with a lethal dose of intravenous pentobarbital, and the hearts were excised. The weight of the left ventricle (LV) including the ventricular septum (Sep) relative to the right ventricle (RV) was measured, and the ratio was used as an index of right ventricular hypertrophy.

IL-1β mRNA = test: Quantitative RT-PCR analysis of IL-1β mRNA in whole lung of monocrotaline-induced pulmonary hypertension rats; type: in vivo, rat (male Sprague Dawley); details: 2 mg/kg/day, 3 weeks, FIG. 7 right, result in words
IL-6 mRNA = test: Quantitative RT-PCR analysis of IL-6 mRNA in whole lung of monocrotaline-induced pulmonary hypertension rats; type: in vivo, rat (male Sprague Dawley); details: 2 mg/kg/day, 3 weeks, FIG. 7 left

Cc1cccc([C@@H](C)[C@H](O)/C=C/[C@@H]2[C@@H]3[C@H](C[C@H]2O)O/C(=C\CCCc2nnn[nH]2)C3(F)F)c1 [KAG-308, 4-[(Z)-(1S,5R,6R,7R)-6-[(1E,3R,4R)-3-hydroxy-4-(m-tolyl)-1-pentenyl]-7-hydroxy-2-oxa-4,4-difluoro-bicyclo[3.3.0]octan-3-ylidene]-1-(tetrazol-5-yl)butane]
increase in infiltration of inflammatory CD68-positive macrophages ([1]; lung, anti-CD68 immunostaining, 15 fields at 400×, FIG. 6): significantly suppressed | increase in average medial wall thickness of pulmonary artery ([1]; pulmonary arteries of outer diameter 50 to 100 μm, EVG staining, FIG. 4): significantly suppressed | non-muscular percentage of small pulmonary arteries ([1]; small pulmonary arteries of outer diameter 50 μm or less, anti-α-SMA immunostaining, non muscular <25%, FIG. 5): increased | totally muscular percentage of small pulmonary arteries ([1]; small pulmonary arteries of outer diameter 50 μm or less, anti-α-SMA immunostaining, totally muscular >75%, FIG. 5): decreased | increase in right ventricular systolic pressure (RVSP) ([2]; 1 mg/kg orally twice daily (2 mg/kg/day), FIG. 2 left): significantly suppressed | increase in weight ratio RV/LV+Sep (right ventricular hypertrophy) ([2]; 1 mg/kg orally twice daily (2 mg/kg/day), FIG. 2 right): significantly suppressed | left ventricular systolic pressure ([2]; 2 mg/kg/day orally, FIG. 3 left): without affecting | heart rate ([2]; 2 mg/kg/day orally, FIG. 3 right): without affecting | increase in mRNA expression level of IL-1β (IL-1β mRNA): significantly suppressed | suppression of the increase in mRNA expression level of IL-6 (IL-6 mRNA): 89% | increase in mRNA expression level of IL-6 (IL-6 mRNA; result in words): significantly suppressed
